We go through six compounds from PMC8048383 (Cancer cell, 2021).

The test system of data set [1] is platinum-resistant SCLC patients. Conditions: second-line lurbinectedin; ref Trigo et al., 2020; cited from earlier work.
For another data set, the system named is SCLC cells. Nature of the data set: MIPE 5.0 library combination screen with indotecan, pairs ranked by ExcessHSA. It is filed as cell-based, human. Conditions: in combination with indotecan (LMP400).
Data set [2] in a line: plasma pharmacokinetics in trial patients. It is filed as in vivo, human. Conditions: cycle 1, suggesting absence of drug-drug interactions.
For data set [3], the system named is patients with platinum-resistant SCLC. Conditions: topotecan monotherapy, ref Horita et al., 2015; cited from earlier work.
Data set [4] deals with replication protein A (RPA) S33 phosphorylation. Nature of the data set: Western blot of RPA phosphorylation. It is filed as cell-based, human.
For data set [5], the system named is DMS114 and H209 SCLC cell models. Nature of the data set: replication. It is filed as cell-based, human.
For data set [6], the system named is TOP1 DNA-protein crosslinks (TOP1-DPCs) in DMS114 cells. Nature of the data set: in vivo complex of enzyme. It is filed as cell-based, human.
The test system of the next data set is pCHK1 (Ser345). The data set can be described thus: pharmacodynamics of pCHK1. In kind it is in vivo, mice. The settings on record: M6620 10, 20 and 30 mg/kg i.v. with 50 mg/kg irinotecan i.p.; 1-24 h.
A further data set relates to DMS114 cells. Nature of the data set: flow cytometry EdU incorporation and cell cycle analysis. It is filed as cell-based, human. Conditions: M6620 with topotecan; forced progression to G2/M phase.

Structures are written as SMILES.

As to `COc1ccc2[nH]c3c(c2c1)CCN[C@]31CS[C@@H]2c3c(OC(C)=O)c(C)c4c(c3[C@H](COC1=O)N1[C@@H]2[C@H]2c3c(cc(C)c(OC)c3O)C[C@@H]([C@@H]1O)N2C)OCO4` [lurbinectedin], in data set [1], the “confirmed ORR” value was 22.2%, the “median DOR” value is 4.7 months and the “patients with confirmed responses with DOR>6 months” value is 11.7%.

Regarding `COc1cccc(OCCCN)c1-c1cc(Nc2cnc(C#N)cn2)n[nH]1` [prexasertib], the “rank of TOP1 inhibitor-drug pair by ExcessHSA” value in the data set on SCLC cells is reported as 9.

Consider `CC[C@@]1(O)C(=O)OCc2c1cc1n(c2=O)Cc2cc3c(CN(C)C)c(O)ccc3nc2-1` [topotecan], for which the “plasma pharmacokinetics in combination” value in [2] was “appeared consistent with the individual agents”. For the same compound, the “responses (proportion of patients)” value in data set [3] is reported as “approximately 5%”. In [4] (DMS114 cells, following exposure to topotecan), the “phosphorylation of RPA at S33” value was “rapid phosphorylation of replication protein A (RPA) at S33”. Further, in data set [5] (within 30 minutes of topotecan treatment), the replication velocity result is on record as “significantly reduced replication velocity”.

Consider `CC(C)c1cc(-c2n[nH]c(=O)n2-c2ccc3c(ccn3C)c2)c(O)cc1O` [ganetespib], for which the “rank of TOP1 inhibitor-drug pair by ExcessHSA” value in the data set on SCLC cells stood at 5.

With `O=c1cc(-c2cccc3c2Sc2ccccc2S3)oc(N2CCOCC2)c1` [KU55933], the “potentiation of topotecan-generated TOP1-DPCs” value in data set [6] (1 μM pretreatment 4 h before topotecan 1 μM 2 h) is reported as “neither an ATM inhibitor (KU55933) nor a DNA-PKcs inhibitor (VS984) potentiated topotecan-generated TOP1-DPCs”.

As for `CNCc1ccc(-c2cc(-c3nc(-c4ccc(S(=O)(=O)C(C)C)cc4)cnc3N)on2)cc1` [M6620, berzosertib], the “increase in TOP1-DPCs” value in data set [6] (M6620 pre-treatment (1 μM, 4 h), after 2-hour treatment with topotecan (1 μM)) is given as 1.4 fold. Also, in the data set on pCHK1 (Ser345), the “irinotecan induced pCHK1 (Ser345)” value was “blocks irinotecan induced pCHK1 in a dose- and time-dependent manner”. Further, the “plasma pharmacokinetics in combination” value in data set [2] is on record as “appeared consistent with the individual agents”. Also, the “S-phase arrest induced by TOP1 inhibition” value with DMS114 cells was “abrogated the S-phase arrest induced by TOP1 inhibition”. Further, the “topotecan-induced RPA32 phosphorylation” value in data set [4] (M6620 treatment) was “reduced the topotecan-induced RPA32 phosphorylation”. In addition, in data set [5] (M6620 added to topotecan), the topotecan-induced replication block result is listed as “abrogated the replication block”. Further, in the data set on SCLC cells, the “rank of TOP1 inhibitor-drug pair by ExcessHSA” value was 32.
